Laboratory results published in patent publication US10836759B2, “Thiazole derivatives useful as mutant IDH1 inhibitors for treating cancer” (THE UNITED STATES OF AMERICA, AS REPRESENTED BY THE …, priority 2016, dated 2020).

Tests used:
[1] = molecular target: IDH1 R132H (Homo sapiens, UniProt O75874, R132H); experiment: Enzymatic inhibition assay, mutant IDH1 R132H (NADPH depletion coupled to diaphorase/resazurin); format: biochemical; details: IDH1 R132H enzyme, IC50 class
Experimental: (§1) Assays were conducted in a 1536-well black solid-bottom plate with a final assay volume of 9 μL.
Specifically, for IDH1 R132H, 3 μL of enzyme (4 mM β-ME, 0.0005 mg/mL IDH1 R132H, 150 mM NaCl, 20 mM Tris pH 7.5, 10 mM MgCl2, 0.05% BSA) were added to the plate, followed by the addition of 23 nL of test compound in DMSO. The plate was lidded and incubated at room temperature for 30 minutes at which time 3 μL of substrate were added (0.016 mM NADPH, 2 mM α-KG, 150 mM NaCl, 20 mM Tris pH 7.5, 10 mM MgCl2, 0.05% BSA). This reaction was incubated at room-temperature for 60 minutes at which time the detection mix was added (0.06 mg/mL diaphorase, 0.036 mM resazurin, 150 mM NaCl, 20 mM Tris pH 7.5, 10 mM MgCl2, 0.05% BSA). […]

[2] = molecular target: IDH1 R132C (Homo sapiens, UniProt O75874, R132C); experiment: Enzymatic inhibition assay, mutant IDH1 R132C (NADPH depletion coupled to diaphorase/resazurin); format: biochemical; details: IDH1 R132C enzyme, IC50 class
Sequence of IDH1 R132C (O75874 whole entry R132C): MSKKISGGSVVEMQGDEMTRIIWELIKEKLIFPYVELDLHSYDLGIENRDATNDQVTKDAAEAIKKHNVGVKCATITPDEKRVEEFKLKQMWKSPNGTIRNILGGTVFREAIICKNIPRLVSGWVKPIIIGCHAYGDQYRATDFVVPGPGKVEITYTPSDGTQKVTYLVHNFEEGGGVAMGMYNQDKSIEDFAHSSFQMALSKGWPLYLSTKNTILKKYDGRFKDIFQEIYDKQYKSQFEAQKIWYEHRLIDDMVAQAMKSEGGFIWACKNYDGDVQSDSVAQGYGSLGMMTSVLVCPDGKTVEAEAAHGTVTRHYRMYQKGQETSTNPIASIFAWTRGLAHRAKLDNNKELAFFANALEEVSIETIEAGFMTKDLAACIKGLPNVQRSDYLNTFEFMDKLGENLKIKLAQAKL
Experimental: as §1
For IDH1 R132C, 3 μL of enzyme (0.00032 mg/mL IDH1 R132H, 10% glycerol, 50 mM potassium phosphate pH 6.5, 5 mM MgCl2, 0.03% BSA) were added to the plate, followed by the addition of 23 nL of test compound in DMSO. The plate was lidded and incubated at room temperature for 30 minutes at which time 3 μL of substrate were added (0.012 mM NADPH, 0.6 mM α-KG, 10% glycerol, 50 mM potassium phosphate pH 6.5, 5 mM MgCl2, 0.03% BSA). […]

Sequence of IDH1 R132H (O75874 whole entry R132H): as the sequence (O75874 whole entry R132C) above, with C132H counted along it

| Structure (SMILES) | IC50 [1] [nM] | IC50 [2] [nM] |
| --- | --- | --- |
| CCOc1ccc(C#N)cc1-n1c(C=C(C)C)c(C(=O)N2CCNCC2)cc(-c2nc(-c3ccc(Cl)cc3)cs2)c1=O [Compound 136] | < 300 | < 300 |
| CCc1ccc(Cl)cc1-n1c(C=C(C)C)c(C(=O)N2CC3CCC(C2)N3)cc(-c2nc(-c3ccc(Cl)cc3)cs2)c1=O (single isomer, unassigned) [Compound 133-1] | 300 to 1000 | < 300 |
| CCOc1ccc(Cl)c(-n2c(C=C(C)C)c(C(=O)N3C[C@H]4CC[C@@H](C3)N4)cc(-c3nc(-c4ccc(Cl)cc4)cs3)c2=O)c1 [Compound 126] | < 300 | < 300 |
| CC(C)=Cc1c(C(=O)N2C[C@H]3CC[C@@H](C2)N3)cc(-c2nc(-c3ccc(Cl)cc3)cs2)c(=O)n1-c1cc(N(C)C)ccc1Cl [Compound 150] | 300 to 1000 | < 300 |
| CCOc1ccc(Cl)c(-n2c(C=C(C)C)c(C(=O)N3CC4CCC(C3)N4)cc(-c3nc(-c4ccc(Cl)cc4)cs3)c2=O)c1 (single isomer, unassigned) [Compound 126-1] | < 300 | < 300 |
| CCc1ccc(Cl)cc1-n1c(C=C(C)C)c(C(=O)N2CCNCC2)cc(-c2nc(-c3ccc(C(F)(F)F)nc3)cs2)c1=O [Compound 122] | 300 to 1000 | 1000 to 5000 |
| CCOc1ccc(Cl)c(-n2c(C=C(C)C)c(C(=O)N3CCNCC3)cc(-c3nc(-c4ccc(C(F)(F)F)cc4)cs3)c2=O)c1 [Compound 105] | < 300 | < 300 |
| CCc1cccc(CC)c1-n1c(C=C(C)C)c(C(=O)N2CCN[C@H](C)C2)cc(-c2nc(-c3ccc(C(F)F)cc3)cs2)c1=O [Compound 111] | < 300 | < 300 |
| CCc1ccc(OC)cc1-n1c(C=C(C)C)c(C(=O)N2C[C@H]3CC[C@@H](C2)N3)cc(-c2nc(-c3ccc(Cl)cc3)cs2)c1=O (single isomer, unassigned) [Compound 114-1] | < 300 | < 300 |
| CCOc1ccc(Cl)c(-n2c(C=C(C)C)c(C(=O)N3C[C@H]4CC[C@@H](C3)N4)cc(-c3nc(-c4ccc(C(F)(F)F)cc4)cs3)c2=O)c1 [Compound 127] | < 300 | < 300 |
| CCOc1ccc(Cl)c(-n2c(C=C(C)C)c(C(=O)N3CCNCC3)cc(-c3nc(-c4ccc(OC)nc4)cs3)c2=O)c1 [Compound 137] | < 300 | < 300 |
| CCc1ccc(OC)cc1-n1c(C=C(C)C)c(C(=O)N2C[C@H]3CC[C@@H](C2)N3)cc(-c2nc(-c3ccc(Cl)cc3)cs2)c1=O (single isomer, unassigned) [Compound 114-2] | 300 to 1000 | 300 to 1000 |
| CCOc1ccc(Cl)cc1-n1c(C=C(C)C)c(C(=O)N2CCNC[C@@H]2C)cc(-c2nc(-c3ccc(C(F)(F)F)cc3)cs2)c1=O [Compound 128] | < 300 | 300 to 1000 |
| CCc1cccc(CC)c1-n1c(C=C(C)C)c(C(=O)N2CCNC[C@H]2C)cc(-c2nc(-c3ccc(Cl)cc3)cs2)c1=O [Compound 123] | < 300 | < 300 |
| CCc1ccc(Cl)cc1-n1c(C=C(C)C)c(C(=O)N2CC3CCC(C2)N3)cc(-c2nc(-c3ccc(Cl)cc3)cs2)c1=O (single isomer, unassigned) [Compound 133-2] | 1000 to 5000 | 300 to 1000 |
| CNc1ccc(Cl)c(-n2c(C=C(C)C)c(C(=O)N3C[C@H]4CC[C@@H](C3)N4)cc(-c3nc(-c4ccc(Cl)cc4)cs3)c2=O)c1 [Compound 149] | < 300 | < 300 |
